{"source": "patent US20100004303A1", "about": "“TREATMENT OF ENDOCRINE DYSFUNCTION USING IRON CHELATORS” (NOVARTIS AG, priority 2006, published 2010)", "key": {"pancreatic Min6 cells": {"test_system": "pancreatic Min6 cells", "test": "Labile iron exposure of pancreatic Min6 cells: iron accumulation, cell damage, viability", "format": "cell-based", "excerpt": "(§1) Among the functions affected by metal-evoked ROS are cell permselectivity (calcein leakage), mitochondrial membrane potential (JC1 test), electron transport activity (Alamar Blue) and cell viability (calcein-propidium iodide). It can be observed that administration of deferasirox at therapeutically achievable doses ([…]): […]"}, "At20 pituitary cells": {"test_system": "At20 pituitary cells", "test": "Cytoprotective effect on acutely iron-overloaded At20 pituitary cells (calcein retention, Alamar-Blue, ACTH levels)", "format": "cell-based", "details": "cell culture conditions, pharmacological chelator concentrations", "excerpt": "A major cause of biological damage associated with tissue iron accumulation is the cellular acquisition of circulating labile plasma iron (LPI) by endocytic mechanisms and ensuing metal-catalyzed oxidations. Endocrine cells are presumed to have endocytic abilities and/or high susceptibility to the formation of reactive oxygen intermediates (ROIs), particularly those generated in the presence of labile iron. As these properties might be implicated in the early onset of endocrine dysfunctions observed in transfusional hemosiderosis, a major goal of iron chelation therapy is to prevent iron ingress into endocrine cells and ensuing toxicity and/or removal of cell accumulated iron. Such properties of chelators have been afforded in cardiac cells (Glickstein et al, 2006, Blood In press) by treating LPI-carrying plasma with pharmacological attainable concentrations of orally active iron chelators in clinical practice. […] It has been explored here whether addition of 4-[3,5-bis(2-hydroxyphenyl)-[1,2,4]triazol-1-yl]benzoic acid could rescue acutely-iron-overloaded At20 pituitary cells from iron-toxicity, using fluorescence-plate reader and microscopy-imaging for live monitoring of cell functions and assessing toxicity in terms of: 1. cell integrity (calcein cell retention assay) 2. metabolic activities (mitochondrial Alamar-Blue assay) and 3. intracellular (ACTH) hormone levels."}, "pituitary Att20 cells": {"test_system": "pituitary Att20 cells", "test": "Labile iron exposure of pituitary Att20 cells: iron accumulation, cell damage, viability", "format": "cell-based", "excerpt": "as §1"}, "subjects with IGM": {"test_system": "subjects with IGM", "test": "Multi-center, double-blind, randomized study in subjects with IGM", "format": "in vivo, human", "details": "8 weeks of treatment", "excerpt": "Favorable effects can be verified that confirm that Compound I can restore early phase insulin secretion and reduce post-prandial glucose levels in subjects with IGM, or can prevent or delay the onset of Type 2 diabetes and cardiovascular diseases in subjects with IGM. A multi-center, double-blind, parallel group, randomized study can be conducted in subjects with IGM in order to evaluate the incidence of confirmed hypoglycemia and the effects on prandial glucose associated with the administration of Compound I, or placebo before each main meal during 8 weeks of treatment. […]\nCorresponding dosages of Compound I are administered daily depending on the number of main meals (breakfast, lunch, snack, dinner). […] HbA1c is to be measured at baseline and after 8 weeks of treatment (fasting glucose and fructosamine). Samples of blood are to be drawn at 10, 20, […], 60, 120, and 180 minutes after drug administration (time 0) and the glucose and insulin levels to be measured. […]"}, "[1]": {"test_system": "HJV−/− mice with iron overload", "test": "Pancreas iron (ICP-OES) in HJV−/− mice with iron overload", "format": "in vivo", "protocol": "The spontaneous iron loading and the effect of 4-[3,5-bis(2-hydroxyphenyl)-[1,2,4]triazol-1-yl]benzoic acid (Compound I) has been examined upon the removal of iron in HJV−/− mice with iron overload.\nMethods: Inductively-Coupled Plasma Optical Emission Spectrometry (ICP-OES, measurement of elemental iron) determinations in spleen and pancreas were performed at week 8 (study start), 14, 20 and 28 in HJV−/− and wild type (wt) mice (n=6−8). Starting at week 20 three groups of HJV−/− animals received daily 0 (vehicle), 30 or 100 mg/kg of 4-[3,5-bis(2-hydroxyphenyl)-[1,2,4]triazol-1-yl]benzoic acid, control wt-mice remained untreated. Iron loading was observed up to 28 weeks, including vehicle group, and the effects of 4-[3,5-bis(2-hydroxyphenyl)-[1,2,4]triazol-1-yl]benzoic acid were assessed by comparing the 28-week groups. MRI R2* measurements were performed using a 4.7 MR imager."}, "[2]": {"details": "model systems and humans; Hershko 2001, Nisbet Brown 2003; cited from earlier work"}, "Diet-induced obese mice": {"test_system": "Diet-induced obese mice", "test": "Oral glucose tolerance test and plasma insulin in diet-induced obese mice", "format": "in vivo", "details": "compared to the control animals", "protocol": "Diet-induced obese mice are used for the study at 21-23 weeks of age. On the first day of the study, animals are fasted at 7:30 a.m. Body weight measurement and basal blood sample collection are conducted at 10:30 a.m. Plasma glucose values are then determined. Animals were assigned into 4 groups (n=10/group) with the plasma glucose values and body weights matched between the 4 groups. At 12 pm, the animals are dosed orally with vehicle (water) or the Compound I at 30 mg/kg or […] respectively. At 1:00 p.m. a blood sample (at 0 min) is taken followed by an oral glucose tolerance test (OGTT) at 1 g/kg (20% glucose in water) at a dose volume of 5 ml/kg. Blood samples are collected at 30, 60 and 120 min following the glucose administration. The animals are refed after the OGTT. […]\nBlood samples are taken during the study via tail bleeding. Plasma glucose concentrations are determined using a glucose meter (Ascensia Elite, Bayer Corp., Mishawaka, Ind.). […] Plasma insulin and glucagons levels are determined by Luminex assays using Mouse Endocrine Lincoplex kit (Linco Research, Inc., St. Charles, Mo.). […] Plasma triglyceride, fatty acid and total cholesterol levels are determined using a fluorescent assay based on Amplex Red kit (Molecular Probes, Eugene, Oreg.). […] Effects on cardiovascular diseases can also be assessed by further analysis on treated animals."}, "[3]": {"details": "30-100 μM, incubated prior to or post iron-loading (acutely or chronically)"}, "[4]": {"details": "30-100 μM, present in the iron loading medium"}, "[5]": {"details": "30-100 μm, incubated prior to or post iron-loading (acutely or chronically)"}}}
{"smiles": "O=C(O)c1ccc(-n2nc(-c3ccccc3O)nc2-c2ccccc2O)cc1", "note": "[Compound I, 4-[3,5-Bis-(2-hydroxyphenyl)-[1,2,4]-triazol-1-yl]benzoic acid]", "values": [{"measurement": "cell viability", "setting": "pancreatic Min6 cells; [3]", "value": "increases cell viability"}, {"measurement": "labile iron raising in cells", "setting": "pancreatic Min6 cells; [4]", "value": "largely prevents labile iron from raising in cells"}, {"measurement": "iron-evoked cell damage", "setting": "pancreatic Min6 cells; [5]", "value": "reduces iron-evoked cell damage"}, {"measurement": "At20 endocrine cell viability and functional properties compromised by iron-catalyzed formation of ROIs", "setting": "At20 pituitary cells", "value": "can preserve both At20 endocrine cell viability and functional properties"}, {"measurement": "cell viability", "setting": "pituitary Att20 cells; [3]", "value": "increases cell viability"}, {"measurement": "labile iron raising in cells", "setting": "pituitary Att20 cells; [4]", "value": "largely prevents labile iron from raising in cells"}, {"measurement": "iron-evoked cell damage", "setting": "pituitary Att20 cells; [5]", "value": "reduces iron-evoked cell damage"}, {"measurement": "2 hour prandial glucose levels, HBA1c and fructosamine levels", "setting": "subjects with IGM", "value": "can be reduced"}, {"measurement": "early phase insulin secretion", "setting": "subjects with IGM", "value": "can be restored"}, {"measurement": "pancreas iron ± SEM", "setting": "[1]; 30 mg/kg daily from week 20, 28-week group, n = 7", "value": "4.72 ± 0.65", "unit": "mg/g dry weight"}, {"measurement": "pancreas iron ± SEM", "setting": "[1]; 100 mg/kg daily from week 20, 28-week group, n = 6", "value": "3.54 ± 0.55", "unit": "mg/g dry weight"}, {"measurement": "pancreas iron levels, effect in words", "setting": "[1]; 100 mg/kg dose", "value": "clear trend to lower levels"}, {"measurement": "pancreatic iron load, effect in words", "setting": "[1]; within 8 weeks of treatment", "value": "trend to improvement of pancreatic iron load"}, {"measurement": "selective removal of iron", "setting": "[2]", "value": "effective in the selective removal of iron"}, {"measurement": "plasma insulin levels", "setting": "Diet-induced obese mice", "value": "can show a lowering in plasma insulin levels"}]}
